# Measurements reported in PubChem BioAssay AID1259407 (Chemical Carcinogenesis Research Information System (CCRIS), 2018).
# Calls of active or inactive are those of the source. No rule for the calls is given here.
# Tested on: CCRIS mutagenicity, Ames/micronucleus/aberration tests
# Assay: CCRIS mutagenicity studies
# [1] = Test System: AMES SALMONELLA TYPHIMURIUM, Strain/Indicator: TA98, Metabolic Activation: NONE, Method: PREINCUBATION
# [2] = Test System: AMES SALMONELLA TYPHIMURIUM, Strain/Indicator: TA98, Metabolic Activation: NONE, Method: STANDARD PLATE
# [3] = Test System: AMES SALMONELLA TYPHIMURIUM, Strain/Indicator: TA100, Metabolic Activation: NONE, Method: PREINCUBATION
# [4] = Test System: AMES SALMONELLA TYPHIMURIUM, Strain/Indicator: TA100, Metabolic Activation: NONE, Method: STANDARD PLATE
# [5] = Test System: AMES SALMONELLA TYPHIMURIUM, Strain/Indicator: TA1535, Metabolic Activation: NONE, Method: PREINCUBATION
# [6] = Test System: AMES SALMONELLA TYPHIMURIUM, Strain/Indicator: TA1537, Metabolic Activation: NONE, Method: PREINCUBATION
# [7] = Test System: AMES SALMONELLA TYPHIMURIUM, Strain/Indicator: TA98, Metabolic Activation: RAT, LIVER, S-9, AROCLOR 1254, Method: PREINCUBATION
# [8] = Test System: AMES SALMONELLA TYPHIMURIUM, Strain/Indicator: TA100, Metabolic Activation: RAT, LIVER, S-9, AROCLOR 1254, Method: PREINCUBATION
# [9] = Test System: AMES SALMONELLA TYPHIMURIUM, Strain/Indicator: TA102, Metabolic Activation: NONE, Method: PREINCUBATION
# [10] = Test System: AMES SALMONELLA TYPHIMURIUM, Strain/Indicator: TA102, Metabolic Activation: RAT, LIVER, S-9, AROCLOR 1254, Method: PREINCUBATION
compound,measurement,setting,value
CC1=CC(C)(C)Nc2ccccc21,mutagenic call,"Test System: AMES SALMONELLA TYPHIMURIUM, Strain/Indicator: TA98, Metabolic Activation: HAMSTER, LIVER, S-9, AROCLOR 1254 (10%), Method: PREINCUBATION",inactive; negative
same,mutagenic call,[1],inactive; negative
same,mutagenic call,[2],inactive; negative
same,mutagenic call,"Test System: AMES SALMONELLA TYPHIMURIUM, Strain/Indicator: TA98, Metabolic Activation: RAT, LIVER, S-9, AROCLOR 1254 (10%), Method: PREINCUBATION",inactive; negative
same,mutagenic call,"Test System: AMES SALMONELLA TYPHIMURIUM, Strain/Indicator: TA98, Metabolic Activation: S-9, Method: STANDARD PLATE",inactive; negative
same,mutagenic call,"Test System: AMES SALMONELLA TYPHIMURIUM, Strain/Indicator: TA100, Metabolic Activation: HAMSTER, LIVER, S-9, AROCLOR 1254 (10%), Method: PREINCUBATION",inactive; negative
same,mutagenic call,[3],inactive; negative
same,mutagenic call,[4],inactive; negative
same,mutagenic call,"Test System: AMES SALMONELLA TYPHIMURIUM, Strain/Indicator: TA100, Metabolic Activation: RAT, LIVER, S-9, AROCLOR 1254 (10%), Method: PREINCUBATION",inactive; negative
same,mutagenic call,"Test System: AMES SALMONELLA TYPHIMURIUM, Strain/Indicator: TA100, Metabolic Activation: S-9, Method: STANDARD PLATE",inactive; negative
same,mutagenic call,"Test System: AMES SALMONELLA TYPHIMURIUM, Strain/Indicator: TA1535, Metabolic Activation: HAMSTER, LIVER, S-9, AROCLOR 1254 (10%), Method: PREINCUBATION",inactive; negative
same,mutagenic call,[5],inactive; negative
same,mutagenic call,"Test System: AMES SALMONELLA TYPHIMURIUM, Strain/Indicator: TA1535, Metabolic Activation: RAT, LIVER, S-9, AROCLOR 1254 (10%), Method: PREINCUBATION",inactive; negative
same,mutagenic call,"Test System: AMES SALMONELLA TYPHIMURIUM, Strain/Indicator: TA1537, Metabolic Activation: HAMSTER, LIVER, S-9, AROCLOR 1254 (10%), Method: PREINCUBATION",inactive; negative
same,mutagenic call,[6],inactive; negative
same,mutagenic call,"Test System: AMES SALMONELLA TYPHIMURIUM, Strain/Indicator: TA1537, Metabolic Activation: RAT, LIVER, S-9, AROCLOR 1254 (10%), Method: PREINCUBATION",inactive; negative
Cc1cccc(C(=O)ON(OCc2ccccc2)C(=O)c2ccccc2)c1,mutagenic call,[4],active; positive
same,mutagenic call,"Test System: AMES SALMONELLA TYPHIMURIUM, Strain/Indicator: TA100, Metabolic Activation: RAT, S-9, AROCLOR, Method: STANDARD PLATE",active; positive
O=Cc1cc(=O)[nH]c(=O)[nH]1,mutagenic call,"Test System: CHINESE HAMSTER V-79, Strain/Indicator: V-79 (HPRT)/6-THIOGUANINE, Metabolic Activation: NONE, Method: STANDARD PLATE",active; positive
Cc1cnc(C)c(C)n1,mutagenic call,[1],inactive; negative
same,mutagenic call,[7],inactive; negative
same,mutagenic call,[3],inactive; negative
same,mutagenic call,[8],inactive; negative
same,mutagenic call,[9],inactive; negative
same,mutagenic call,[10],inactive; negative
C=CCc1ccc(OC)c(OC)c1,mutagenic call,"Test System: AMES SALMONELLA TYPHIMURIUM, Strain/Indicator: TA98, Metabolic Activation: HAMSTER, LIVER, S-9, AROCLOR 1254, Method: PREINCUBATION",inactive; negative
same,mutagenic call,[1],inactive; negative
same,mutagenic call,[7],inactive; negative
same,mutagenic call,"Test System: AMES SALMONELLA TYPHIMURIUM, Strain/Indicator: TA100, Metabolic Activation: HAMSTER, LIVER, S-9, AROCLOR 1254, Method: PREINCUBATION",inactive; negative
same,mutagenic call,[3],inactive; negative
same,mutagenic call,[8],inactive; negative
same,mutagenic call,"Test System: AMES SALMONELLA TYPHIMURIUM, Strain/Indicator: TA1535, Metabolic Activation: HAMSTER, LIVER, S-9, AROCLOR 1254, Method: PREINCUBATION",inactive; negative
same,mutagenic call,[5],inactive; negative
same,mutagenic call,"Test System: AMES SALMONELLA TYPHIMURIUM, Strain/Indicator: TA1535, Metabolic Activation: RAT, LIVER, S-9, AROCLOR 1254, Method: PREINCUBATION",inactive; negative
same,mutagenic call,"Test System: AMES SALMONELLA TYPHIMURIUM, Strain/Indicator: TA1537, Metabolic Activation: HAMSTER, LIVER, S-9, AROCLOR 1254, Method: PREINCUBATION",inactive; negative
same,mutagenic call,[6],inactive; negative
same,mutagenic call,"Test System: AMES SALMONELLA TYPHIMURIUM, Strain/Indicator: TA1537, Metabolic Activation: RAT, LIVER, S-9, AROCLOR 1254, Method: PREINCUBATION",inactive; negative
CNC[C@H](O)[C@@H](O)[C@H](O)[C@H](O)CO.CNC[C@H](O)[C@@H](O)[C@H](O)[C@H](O)CO.O=C([O-])CN(CCN(CC(=O)[O-])CC(=O)[O-])CCN(CC(=O)[O-])[C@H](COCc1ccccc1)C(=O)[O-].[Gd+3].[H+].[H+],mutagenic call,[2],inactive; negative
same,mutagenic call,"Test System: AMES SALMONELLA TYPHIMURIUM, Strain/Indicator: TA98, Metabolic Activation: RAT LIVER S-9, AROCLOR 1254 (10%), Method: STANDARD PLATE",inactive; negative
same,mutagenic call,[4],inactive; negative
same,mutagenic call,"Test System: AMES SALMONELLA TYPHIMURIUM, Strain/Indicator: TA100, Metabolic Activation: RAT LIVER S-9, AROCLOR 1254 (10%), Method: STANDARD PLATE",inactive; negative
same,mutagenic call,"Test System: AMES SALMONELLA TYPHIMURIUM, Strain/Indicator: TA1535, Metabolic Activation: NONE, Method: STANDARD PLATE",inactive; negative
same,mutagenic call,"Test System: AMES SALMONELLA TYPHIMURIUM, Strain/Indicator: TA1535, Metabolic Activation: RAT LIVER S-9, AROCLOR 1254 (10%), Method: STANDARD PLATE",inactive; negative
same,mutagenic call,"Test System: AMES SALMONELLA TYPHIMURIUM, Strain/Indicator: TA1537, Metabolic Activation: NONE, Method: STANDARD PLATE",inactive; negative
same,mutagenic call,"Test System: AMES SALMONELLA TYPHIMURIUM, Strain/Indicator: TA1537, Metabolic Activation: RAT LIVER S-9, AROCLOR 1254 (10%), Method: STANDARD PLATE",inactive; negative
same,mutagenic call,"Test System: AMES SALMONELLA TYPHIMURIUM, Strain/Indicator: TA1538, Metabolic Activation: NONE, Method: STANDARD PLATE",inactive; negative
same,mutagenic call,"Test System: AMES SALMONELLA TYPHIMURIUM, Strain/Indicator: TA1538, Metabolic Activation: RAT LIVER S-9, AROCLOR 1254 (10%), Method: STANDARD PLATE",inactive; negative
same,mutagenic call,"Test System: ESCHERICHIA COLI, Strain/Indicator: WP2 UVR A-, Metabolic Activation: NONE, Method: STANDARD PLATE",inactive; negative
same,mutagenic call,"Test System: ESCHERICHIA COLI, Strain/Indicator: WP2 UVR A-, Metabolic Activation: RAT LIVER S-9, AROCLOR 1254 (10%), Method: STANDARD PLATE",inactive; negative
Fc1cc(F)c2cccnc2c1,mutagenic call,"Test System: AMES SALMONELLA TYPHIMURIUM, Strain/Indicator: TA100, Metabolic Activation: RAT LIVER S-9, PHENOBARBITAL AND 5,6-BENZOFLAVONE, Method: PREINCUBATION",active; positive
CC(=O)N[C@@H](C(=O)N(CC(=O)O)N=O)C(C)C,mutagenic call,[4],active; positive
same,mutagenic call,"Test System: AMES SALMONELLA TYPHIMURIUM, Strain/Indicator: TA100, Metabolic Activation: RAT, LIVER, S-9, AROCLOR 1254, Method: STANDARD PLATE",active; positive
same,mutagenic call,"Test System: CHO/HGPRT, Strain/Indicator: CHO-K1-BH4, Metabolic Activation: NONE",active; positive
CCC(=O)CN(CC(=O)CC)N=O,mutagenic call,"Test System: CHINESE HAMSTER V-79, Strain/Indicator: V-79/OUABAIN, Metabolic Activation: HAMSTER, HEPATOCYTES, Method: CELL-MEDIATED",active; positive
C=C(C)[C@@H]1CC=C(C=O)CC1,mutagenic call,"Test System: AMES SALMONELLA TYPHIMURIUM, Strain/Indicator: TA97, Metabolic Activation: NONE, Method: PREINCUBATION",inactive; negative
same,mutagenic call,"Test System: AMES SALMONELLA TYPHIMURIUM, Strain/Indicator: TA97, Metabolic Activation: RAT, LIVER, S-9, AROCLOR 1254, Method: PREINCUBATION",inactive; negative
same,mutagenic call,[9],inactive; negative
same,mutagenic call,[10],inactive; negative
